Source text: The following compounds were used as chelating agents in manufacture of cleaning liquids.

pKa1 | pKa2 | pKa3 | pKa4 | pKa5 | pKa6 | pKa7 | pKa8 | Compound
2.35 | 9.87 | – | – | – | – | – | – | NCCC(=O)O [ALA, β-Alanine]
1.82 | 9.01 | 12.48 | – | – | – | – | – | N=C(N)NCCC[C@H](N)C(=O)O [Arginine]
– | – | 6.71 | – | – | – | – | – | O=C(O)CC(O)(CC(=O)O)C(=O)O [Citric acid]
2.14 | 2.38 | 4.26 | 8.60 | 10.53 | – | – | – | O=C(O)CN(CCN(CC(=O)O)CC(=O)O)CCN(CC(=O)O)CC(=O)O [DTPA, Diethylenetriaminepentaacetic acid]
2.00 | 2.70 | 6.2 | 10.30 | – | – | – | – | O=C(O)CN(CCN(CC(=O)O)CC(=O)O)CC(=O)O [EDTA, Ethylenediaminetetraacetic acid]
1.46 | 2.72 | 5.06 | 6.18 | 6.63 | 7.43 | 9.22 | 10.6 | O=P(O)(O)CN(CCN(CP(=O)(O)O)CP(=O)(O)O)CP(=O)(O)O [EDTPO, N,N,N′,N′-Ethylenediaminetetrakis(methylenephosphonic acid)]
2.35 | 9.78 | – | – | – | – | – | – | NCC(=O)O [Gly, Glycine]
1.35 | 2.87 | 7.03 | 11.3 | – | – | – | – | CC(O)(P(=O)(O)O)P(=O)(O)O [HEDP, 1-Hydroxyethylidene-1,1′-diphosphonic acid]
– | 7.40 | – | – | – | – | – | – | O=C(O)C(O)C(O)C(=O)O (stereo not drawn) [Tartaric acid]
